Patent publication US6831079B1, “Vasopressin agonist formulation and process” (American Cyanamid Company, priority 1999, dated 2004)
Values joined by “and” are separate entries in the source; they are usually repeats but may differ in a detail not shown here. Equal entries are not always repeated.

How the values were obtained:
Vasopressin V2 = Vasopressin V2 (Rattus norvegicus, UniProt Q00788); test: Vasopressin V2 agonist effects in normal conscious water-loaded rats; assay type: in vivo; set-up: from tissue; host or cells: whole living Sprague-Dawley rat; the receptor is the animal's own (renal, by own knowledge); settings: Sprague-Dawley (CD) rats, 10 mg/kg oral; for Osmolality (% Increase): change in osmolality as percent of control; for Urine Volume (% decrease): vs. control, urine collected four hours
Sequence of Vasopressin V2 (Q00788 whole entry): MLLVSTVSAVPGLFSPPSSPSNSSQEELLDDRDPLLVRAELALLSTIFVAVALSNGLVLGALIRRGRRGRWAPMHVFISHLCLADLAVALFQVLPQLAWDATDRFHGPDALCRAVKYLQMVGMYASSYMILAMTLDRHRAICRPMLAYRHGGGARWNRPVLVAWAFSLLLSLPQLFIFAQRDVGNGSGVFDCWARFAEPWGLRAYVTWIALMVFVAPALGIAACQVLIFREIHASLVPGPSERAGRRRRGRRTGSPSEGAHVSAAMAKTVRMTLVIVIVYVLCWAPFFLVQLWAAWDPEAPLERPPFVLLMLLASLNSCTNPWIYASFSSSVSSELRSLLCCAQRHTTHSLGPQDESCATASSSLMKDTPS
From the text: Vasopressin V2 Agonist Effects of Test Compounds in Normal Conscious Water-loaded Rats
Male or female normotensive Sprague-Dawley rats (Charles River Laboratories, Inc., Kingston, N.Y.) of 350-500 g body weight were supplied with standard rodent diet (Purina Rodent Lab. Chow 5001) and water ad libitum. On the day of test, rats were placed individually into metabolic cages equipped with devices to separate the feces from the urine and containers for collection of urine. […] The vehicle used was 20% dimethylsulfoxide (DMSO) in 2.5% preboiled corn starch. Thirty minutes after dosing the test compound, rats were gavaged with water at 30 ml/kg into the stomach using a feeding needle. During the test, rats were not provided with water or food. Urine was collected for four hours after dosing of the test compound. At the end of four hours, urine volume was measured. Urinary osmolality was determined using a Fiske One-Ten Osmometer (Fiske Associates, Norwood, Mass., 02062) or an Advanced CRYOMATIC Osmometer, Model 3C.2 (Advanced Instruments, Norwood, Mass.). Determinations of Na^+, K^+ and Cl^− ion were carried out using ion specific electrodes in a Beckman SYNCHRON EL-ISE Electrolyte System analyzer. The urinary osmolality should increase proportionally. In the screening test, two rats were used for each compound. If the difference in the urine volume of the two rats was greater than 50%, a third rat was used.

Row | Osmolality (% Increase) (Vasopressin V2) [%] | Urine Volume (% decrease) (Vasopressin V2) [%] | melting point | Compound
1 | 325 | 70 | 137 to 138 °C and 141 to 143 °C | Cc1ccn(-c2ccc(C(=O)N3Cc4cccn4Cc4ccccc43)c(Cl)c2)n1 (single isomer, unassigned) [Example 9A]
2 | 214 | 52 | 178 to 180 °C | Cc1ccn(-c2ccc(C(=O)N3Cc4ccc(C)n4Cc4ccccc43)c(Cl)c2)n1 [Example 18, [2-Chloro-4-(3-methylpyrazol-1-yl)-phenyl]-(3-methyl-5H,11H-pyrrolo[2,1-c][1,4]benzodiazepin-10-yl)-methanone]
3 | 362 | 68 | 105 to 110 °C | CCCC(=O)n1ccc(-c2ccc(C(=O)N3Cc4cccn4Cc4ccccc43)cc2)n1 [Example 33, 1-{3-[4-(5H,11H-Pyrrolo[2,1-c][1,4]benzodiazepine-10-carbonyl)-phenyl]-pyrazol-1-yl}-butan-1-one]
4 | 370 | 71 | 150 to 157 °C | O=C(c1ccc(-c2ccn(C(=O)c3ccc(F)cc3Cl)n2)cc1)N1Cc2cccn2Cc2ccccc21 [Example 37, {4-[1-(2-Chloro-4-fluoro-benzoyl)-1H-pyrazol-3-yl]-phenyl}-(5H,11H-pyrrolo[2,1-c][1,4]benzodiazepin-10-yl}methanone]
5 |  |  | 225 to 227 °C | O=C(c1ccc(-c2ncn[nH]2)cc1)N1Cc2cccn2Cc2ccccc21 [Example 48, (5H,11H-Pyrrolo[2,1-c][1,4]benzodiazepin-10-yl)-[4-(2H-[1,2,4]triazol-3-yl)-phenyl]-methanone]
6 | 223 | 53 |  | Cc1n[nH]c(-c2ccc(C(=O)N3Cc4cccn4Cc4ccccc43)cc2)n1 [Example 50, [4-(5-Methyl-2H-[1,2,4]triazol-3-yl)-phenyl]-(5H,11H-pyrrolo[2,1-c][1,4]-benzodiazepin-10-yl)-methanone]
7 |  | 72 | 193 to 195 °C | Cc1nc(-c2ccc(C(=O)N3Cc4cccn4Cc4ccccc43)cc2)n(C)n1 [Example 51, [4-(2,5-Dimethyl-2H-[1,2,4]triazol-3-yl)-phenyl]-(5H,11H-pyrrolo[2,1-c]-[1,4]benzodiazepin-10-yl)-methanone]
8 | 261 | 66 | 177 to 179 °C | Cc1noc(-c2ccc(C(=O)N3Cc4cccn4Cc4ccccc43)cc2)n1 [Example 52, [4-(3-Methyl[1,2,4]oxadiazol-5-yl)-phenyl]-(5H,11H-pyrrolo-[2,1-c][1,4]-benzodiazepin-10-yl)-methanone]
9 | 324 | 49 |  | O=C(c1ccc(-n2cccn2)cc1)N1Cc2cccn2Cc2ccccc21 [Example 58, [4-(Pyrazol-1-yl)-phenyl]-(5H,11H-pyrrolo[2,1-c][1,4]benzodiazepin-10-yl)-methanone]
10 | 607 | 80 |  | Cc1ccn(-c2ccc(C(=O)N3Cc4cccn4Cc4ccccc43)cc2)n1 [Example 59, [4-(3-Methyl-pyrazol-1-yl)-phenyl]-(5H,11H-pyrrolo[2,1-c][1,4]-benzodiazepin-10-yl)-methanone]
11 | 245 | 59 |  | Cc1cc(C)n(-c2ccc(C(=O)N3Cc4cccn4Cc4ccccc43)cc2)n1 [Example 61, [4-(3,5-Dimethyl-pyrazol-1-yl)-phenyl]-(5H,11H-pyrrolo[2,1-c][1,4]-benzodiazepin-10-yl)-methanone]
12 |  |  | 171 to 172 °C | O=C(c1ccc(-n2ccnc2)cc1)N1Cc2cccn2Cc2ccccc21 [Example 63, [4-(Imidazol-1-yl)-phenyl]-(5H,11H-pyrrolo[2,1-c][1,4]benzodiazepin-10-yl)-methanone]
13 | 90 | 13 |  | N#Cc1ccc(C(=O)N2Cc3cccn3Cc3ccccc32)c(Cl)c1 [Example 77, 3-Chloro-4-(5H,11H-pyrrolo[2,1-c][1,4]benzodiazepine-10-carbonyl)-benzonitrile]
14 | 490 | 82 |  | Cc1n[nH]c(-c2ccc(C(=O)N3Cc4cccn4Cc4ccccc43)c(Cl)c2)n1 [Example 81, [2-Choro-4-(5-methyl-2H-[1,2,4]triazol-3-yl)phenyl]-(5H,11H-pyrrolo[2,1-c][1,4]benzodiazepine-10-carbonyl)-methanone]
15 | 436 | 76 |  | Cc1nc(-c2ccc(C(=O)N3Cc4cccn4Cc4ccccc43)c(Cl)c2)n(C)n1 [Example 85, 4-[(2,5-Dimethyl-2H-[1,2,4]triazol-3-yl)-2-chloro-phenyl]-(5H,11H-pyrrolo[2,1-c][1,4]benzodiazepin-10-carbonyl)-methanone]
16 | 413 | 61 |  | Cc1ccn(-c2ccc(C(=O)N3Cc4cccn4Cc4ccccc43)c(Br)c2)n1 [Example 90]
17 | 69 | 22 |  | O=C(c1ccc(F)cc1F)N1Cc2cccn2Cc2ccccc21 [Example 91, (2,4-Difluoro-phenyl)-(5H,11H-pyrrolo[2,1-c][1,4]benzodiazepin-10-yl)-methanone]
18 | 300 | 68 |  | Cc1ccn(-c2ccc(C(=O)N3Cc4ccnn4Cc4ccccc43)c(C(F)(F)F)c2)n1 [Example 95, [4-(3-Methylpyrazol-1-yl)-2-trifluoromethylphenyl]-(5H,11H-pyrazolo[5,1-c]-[1,4]benzodiazepin-10-yl)-methanone]
19 |  |  | 191 to 193 °C | Cc1ncn(-c2ccc(C(=O)N3Cc4cccn4Cc4ccccc43)c(Cl)c2)n1 [Example 102, [2-Chloro-4-(3-methyl-1,2,4-triazol-1-yl)-phenyl](5H,11H-pyrrolo[2,1-c]-[1,4]benzodiazepin-10-yl)-methanone]
20 |  |  | 148 to 150 °C | Cc1ncn(-c2ccc(C(=O)N3Cc4cccn4Cc4ccccc43)c(C(F)(F)F)c2)n1 [Example 103, [4-(3-Methyl-1,2,4-triazol-1yl)-2-trifluoromethyl-phenyl](5H,11H-pyrrolo[2,1-c][1,4]benzodiazepin-10-yl)-methanone]
21 | 125 | 31 |  | COc1cc(-n2ccc(C)n2)ccc1C(=O)N1Cc2cccn2Cc2ccccc21 [Example 107, [2-Methoxy-4-(3-methyl-pyrazol-1-yl)-phenyl](5H,11H-pyrrolo[2,1-c][1,4]-benzodiazepin-10-yl) Methanone]
22 | 145 | 30 |  | COc1cc(-n2ccc(C)n2)ccc1C(=O)N1Cc2ccc(CN(C)C)n2Cc2ccccc21 [Example 108, (3-Dimethylaminomethyl-5H,11H-pyrrolo[2,1-c][1,4]benzodiazepin-10-yl)[2-methoxy-4-(3-methyl-pyrazol-1-yl)-phenyl]-methanone]
23 | 95 | 21 |  | Cc1ccn(-c2ccc(C(=O)N3Cc4cccn4Cc4ccccc43)c(O)c2)n1 [Example 109]
24 | 229 | 66 |  | Cn1cc(-c2ccc(C(=O)N3Cc4cccn4Cc4ccccc43)c(Cl)c2)cn1 [Example 115, [2-Chloro-4-(1-methyl-1H-pyrazol-4-yl)phenyl) (5H,11H-pyrrolo[2,1-c][1,4]-benzodiazepin-10-yl)-methanone]
25 | 256 | 66 |  | Cc1ccn(-c2ccc(C(=O)N3Cc4ccnn4Cc4ccccc43)c(Cl)c2)n1 [Example 116, [2-Chloro-4-(3-methyl-pyrazol-1-yl)-phenyl]-(4H,10H-pyrazolo[5,1-c][1,4]-benzodiazepin-5-yl)-methanone]
26 | 311 | 68 |  | Cc1ccn(-c2ccc(C(=O)N3Cc4nnnn4Cc4ccccc43)c(Cl)c2)n1 [Example 117]
27 | 269 | 66 |  | Cn1ccc(-c2ccc(C(=O)N3Cc4ccnn4Cc4ccccc43)cc2)n1 [Example 120A, [4-(1-Methyl-1H-pyrazol-3-yl)phenyl](4H,10H-pyrazolo[5,1c][1,4]-benzodiazepin-5-yl)methanone]
28 | 272 | 67 |  | Cn1nccc1-c1ccc(C(=O)N2Cc3ccnn3Cc3ccccc32)cc1 [Example 120B, [4-(2-Methyl-1H-pyrazol-3-yl)phenyl](4H,1OH-pyrazolo[5,1c][1,4]-benzodiazepin-5-yl)methanone]
29 | 291 | 56 |  | [2-Chloro-4-(2-methyl-2H-[1,2,4]triazol-3-yl)-phenyl]-(5H,11H-pyrrolo [2,1-c][1,4]benzodiazepin-10-carbonyl)-methanone [Example 84]
30 | 663 | 88 |  | [2-Chloro-4-(3-methyl-4-ethynyl-phenyl) (5H,11H-pyrrolo[2,1-c][1,4]-benzodiazepin-10-yl)-methanone [Example 123]
